Laboratory results published in article PMC4169579, “Proteolytic Activity of Prostate-Specific Antigen (PSA) towards Protein Substrates and Effect of Peptides Stimulating PSA Activity” (PLoS ONE, 2014).
Positions of bridges follow the written chain, without caps; N, C: chain ends. Residues, ends and D or L forms follow the SMILES beside them. No end group written: not given here.

Key:
PSA [1] = molecular target: T1, PSA (Homo sapiens, UniProt P07288); assay: Enzyme kinetics of PSA with fluorogenic peptide substrate; type: biochemical
T1 construct: from tissue; host or cells: pooled human seminal fluid
T1 sequence (P07288 25-261): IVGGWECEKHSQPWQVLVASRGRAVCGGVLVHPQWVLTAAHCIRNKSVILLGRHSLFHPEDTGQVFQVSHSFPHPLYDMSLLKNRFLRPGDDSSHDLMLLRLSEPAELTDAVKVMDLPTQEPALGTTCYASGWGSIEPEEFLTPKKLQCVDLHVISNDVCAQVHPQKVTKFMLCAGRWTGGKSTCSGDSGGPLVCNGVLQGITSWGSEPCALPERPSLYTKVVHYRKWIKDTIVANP
Experimental: (§1) The major form of active PSA (isoform PSA-B) was purified from pooled human seminal fluid by immunoaffinity chromatography followed by anion exchange chromatography. Semenogelins I and II were isolated from human seminal fluid as previously described, but instead of alkylating the proteins, the reducing agent 30 mM dithiothreitol (Sigma-Aldrich, St. Louis, MO) was included in all buffers during purification. Semenogelins were stored in the purification buffer containing 2 M urea and 5 mM EDTA at −70°C. Prior to cleavage by PSA, the buffer was exchanged to 50 mM Tris, pH 7.7, containing 0.15 M NaCl (TBS), with Amicon Ultra centrifugal filter units (MW cut-off 30 kDa) (Millipore, Cork, Ireland) at 4°C, and protein concentration was determined by measuring absorbance at 280 nm.
(§2) The proteolytic activity of PSA towards small peptide substrates was compared with two different substrates. Both assays were performed in 96-well microplates (PerkinElmer, Turku, Finland) with duplicates in two separate experiments (n = 2) in TBS buffer containing 1 g/l bovine serum albumin (0.1% BSA-TBS). The chromogenic chymotrypsin substrate S-2586 (MeO-Suc-Arg-Pro-Tyr-pNA·HCl) (Chromogenix Instrumentation Laboratory, Milan, Italy) at 0.125–5 mM concentration or 0.125–2 mM fluorogenic PSA substrate 4-morpholinecarbonyl-HSSKLQ-AMC (7-amido-4-methylcoumarin) (custom peptide from JPT Peptide Technologies GmbH, Berlin, Germany) were added to the wells together with 175 nM (5 µg/ml) PSA. The absorbance was measured at 405 nm immediately and at 5 min intervals for 30 min and fluorescence at 355/460 nm (excitation/emission) after 10 min, 20 min, 40 min, 1 h, 2 h and 4 h incubation at room temperature with a Victor 1420 Multilabel plate reader (PerkinElmer). In the fluorogenic assays all wells contained 5% dimethyl sulfoxide (DMSO).
The maximum velocity of the reaction (Vmax) and the Michaelis constant (Km), i.e., substrate concentration at which the reaction rate is half of the maximum, were evaluated for PSA with both peptide substrates using Sigma Plot 11 with the Enzyme Kinetics Module 1.3 (SYSTAT Software, Inc., San Jose, CA) and the catalytic constant (kcat), i.e., the number of substrate molecules converted to product per time unit, was calculated from the equation kcat = Vmax/[PSA]. The absorbance was converted to molar concentration with the Lambert-Beer equation (A = εcl), using the molar absorptivity of pNA (εpNA = 8800 M^−1cm^−1). Fluorescence (counts per second, cps) was transformed to molar concentrations with SigmaPlot by means of a standard curve for 7-amido-4-methylcoumarin (AMC, Sigma-Aldrich).

PSA [2] = molecular target: T1, PSA; assay: Stimulation of PSA activity by peptides, chromogenic substrate; type: biochemical; conditions: for Emax / EC50: 350 nM PSA preincubated with 0.35–350 µM peptide 30 min room temperature, 0.2 mM chromogenic substrate S-2586, mean ± SD, n = 2; for Emax: read-out: Stimulation (maximal stimulation capacity as compared to PSA alone, Vmax (peptide+PSA)/V(PSA)); for EC50: read-out: [peptide]½Vmax (peptide concentration with half-maximal stimulation)
Experimental: as §1
(§3) Peptides that bind to PSA and stimulate its activity have previously been identified by phage display. […] The purity of the peptides as determined by HPLC was over 95% in all batches. We have not observed any significant variation in the capacity of the peptides to stimulate the PSA activity between different peptide batches and suppliers.
as §2
(§4) The effect of the PSA-stimulating peptides on the activity of PSA was characterized with chromogenic and fluorogenic substrates in two (n = 2) and three (n = 3) separate experiments, respectively. PSA (350 nM) was first preincubated with peptides (0.35–350 µM) for 30 min at room temperature. Then 0.2 mM chromogenic or 0.3 mM fluorogenic substrate was added and absorbance or fluorescence was measured as described above. Fluorogenic assays with the peptides were performed in black 384-well microplates (Corning Inc., Corning, NY) and all wells contained 0.75% DMSO. The velocity of the reaction (V) was calculated from the change of absorbance/min or fluorescence/min at the linear phase of the reaction and converted to molar concentration as described above. Vmax (peptide + PSA), i.e., the maximal velocity of the reaction with increasing peptide concentrations and given PSA and substrate concentrations, was determined using SigmaPlot, fitting the data to f = y0+a*(1−exp(−b*x)) using non-linear regression. The maximal stimulatory capacity of the peptide, Vmax (peptide+PSA)/V(PSA), was calculated. The peptide concentrations at which the stimulation of PSA was half of the maximum ([peptide]½Vmax) and at which PSA activity was increased two-fold when compared to PSA alone ([peptide]2V) were also determined.

PSA [3] = molecular target: T1, PSA; assay: Stimulation of PSA activity by peptides, fluorogenic substrate; type: biochemical; conditions: 350 nM PSA preincubated with 0.35–350 µM peptide 30 min room temperature, 0.3 mM fluorogenic substrate, 0.75% DMSO, mean ± SD, n = 3; for Emax: read-out: Stimulation (maximal stimulation capacity as compared to PSA alone, Vmax (peptide+PSA)/V(PSA)); for EC50: read-out: [peptide]½Vmax (peptide concentration with half-maximal stimulation)
Experimental: as §1, §3
The proteolytic activity of PSA towards small peptide substrates was compared with two different substrates. Both assays were performed in 96-well microplates (PerkinElmer, Turku, Finland) with duplicates in two separate experiments (n = 2) in TBS buffer containing 1 g/l bovine serum albumin (0.1% BSA-TBS). […] The absorbance was measured at 405 nm immediately and at 5 min intervals for 30 min and fluorescence at 355/460 nm (excitation/emission) after 10 min, 20 min, 40 min, 1 h, 2 h and 4 h incubation at room temperature with a Victor 1420 Multilabel plate reader (PerkinElmer). […]
as §4, with “PSA (350 nM) was first preincubated with peptides (0.35–350 µM) for 30 min at room temperature.” left out, “Fluorogenic assays with the peptides were performed in black 384-well microplates (Corning Inc., Corning, NY) and all wells contained 0.75% DMSO.” left out

PSA [4] = molecular target: T1, PSA; assay: Surface plasmon resonance binding of peptides to PSA; conditions: SPR, peptide 1.2–600 µM, PBS pH 7.4, 25°C
Experimental: The binding kinetics and affinity of the peptides stimulating the activity of PSA were studied by surface plasmon resonance (SPR) on a Biacore T100 instrument using Biacore T100 Control Software 2.0.3 (both from GE Healthcare, Uppsala, Sweden). PSA (20 µg/ml, 0.7 µM) and α-chymotrypsin (20 µg/ml, 0.8 µM) were covalently immobilized on the Series S Sensor Chip CM5 (GE Healthcare) by using amine coupling in 10 mM sodium acetate buffer, pH 5.0. The immobilization levels varied in different experiments between 2000–3900 resonance units (RU) for PSA and 1400–2500 RU for chymotrypsin. Chymotrypsin was used as a reference for PSA, i.e., the binding of peptides to the chymotrypsin surface was subtracted as a non-specific interaction from the binding of peptides to the PSA surface in all measurements.
Binding to PSA was studied at various peptide concentrations (1.2–600 µM) in phosphate buffered saline (PBS), pH 7.4 (Lonza, Verviers, Belgium), containing 6.7 mM PO4 and 0.15 M NaCl, with a flow rate of 40 µl/min at 25°C. Contact time of the peptides with PSA was 60 s and dissociation time 180 s. In all other steps except the peptide binding the running buffer was supplemented with 0.005% surfactant P20 (GE Healthcare). The chip was washed after each measurement cycle with the running buffer, which removed all peptides. The binding data were analyzed using Biacore T100 Evaluation software 2.0.3. […]

PSA [5] = molecular target: T1, PSA; assay: Proteolytic cleavage of protein substrates by PSA (SDS-PAGE, silver staining); type: biochemical; conditions: 0.2 µM PSA, 1 µM substrate, TBS, 37°C; disappearance of full-length band
Experimental: as §1
(§5) Protein LoBind tubes (Eppendorf AG, Hamburg, Germany) were used in all protein degradation experiments.
(§6) PSA (0.2–1 µM) and 0.5–1 µM of each protein substrate were incubated at 37°C for 22 h in TBS buffer. During the incubation, samples of 15 µl were taken at different time points: 0 min, 10 min, 30 min, 2 h, 5 h and 22 h, and stored at −20°C before further analysis.
Immediately after each incubation, reducing 4× SDS-loading buffer (8% SDS), containing 1 M β-mercaptoethanol or 75 mM dithiothreitol, was added to each sample and proteins were denatured at 70°C for 10 min. The samples were immediately analyzed by SDS-PAGE or frozen at −20°C. Frozen samples were heated again at 70°C before loading on the gel. The cleavage of protein substrates by PSA, i.e., the disappearance of the full-length protein bands, was quantified from scanned images of silver stained gels by the measurement of relative optical densities of the protein bands using ImageJ [40]. […]
Proteins were visualized either by silver staining or Western blotting. […] After 30 min incubation in 0.2% AgNO3, the gel was rinsed briefly with water and proteins were detected with development solution, containing 700 µl/l of 37% formaldehyde, 0.001% sodium thiosulfate and 3% anhydrous Na2CO3. […]

IGFBP-3 = assay: Immunofluorometric assay of intact IGFBP-3 after incubation with PSA and peptides; type: biochemical, human; conditions: 0.2 µM PSA, 2.2 µM IGFBP-3, 37°C, TBS; 22 h in text (24 h in method), n = 2
Experimental: To study the degradation of IGFBP-3 by PSA, we used a sandwich-type immunofluorometric assay (IFMA) that measures only intact IGFBP-3, but not that cleaved by PSA [43], [44]. […] After incubation, the samples were diluted 1∶1000 in IFMA assay buffer and IGFBP-3 concentrations were measured as previously described,[44].

HUVECs = assay: HUVEC tube formation assay on Matrigel; type: cell-based, human
Experimental: Human umbilical vein endothelial cells (HUVECs) were isolated from umbilical cord veins and grown in Endothelial Cell Growth Medium (Promocell, Heidelberg, Germany) with 2% Ultroser G BioSepra serum substitute (PALL BioSepra, Cergy, France) and growth factors EGF and bFGF. For tube formation, HUVECs were grown on top of Matrigel (BD Biosciences) as described previously, [29].
To study the effect of PSA-cleaved protein fragments, 0.08 µM nidogen-1 or 0.4 µM galectin-3 (10 µg/ml each) were first incubated with 1 µM PSA for 24 h at 37°C in PBS (Lonza). Then PSA activity was blocked by one-hour incubation at room temperature with 2 µM monoclonal antibody 5C7 [38]. The mixture containing nidogen-1 or galectin-3 fragments with PSA blocked by antibody or the same amount of intact nidogen-1 or galectin-3 were added together with the cells onto gelled Matrigel and the cells were allowed to form tubular networks for 20 h. Control wells contained either PBS or 1 µM PSA. After overnight incubation, cell culture medium was collected from PBS and PSA control wells for SDS-PAGE and Western blotting. Images of tubular networks (100×magnification) were taken using an Axiovert 200 inverted light microscope connected to an AxioCam digital camera and visualized by AxioVision software (all from Zeiss, Göttingen, Germany).

plasminogen = assay: Plasminogen cleavage control with MMP-3; type: biochemical, human; conditions: 1 µM MMP-3 or PSA, 1 µM plasminogen, 37°C, 22 h, TBS
Experimental: as §5, §6

“4-morpholinecarbonyl-HSSKLQ-AMC [Fluorogenic substrate, fluorogenic PSA substrate, AMC = 7-amido-4-methylcoumarin]” was tested, and the “kcat/Km compared to literature” value (PSA [1]; compared to that reported by Denmeade et al. [36]) was “about five-fold higher”, the kcat (PSA [1]; kcat = Vmax/[PSA], substrate 0.125–2 mM, 175 nM PSA, 0.1% BSA-TBS, 5% DMSO, room temperature, mean ± SD of two experiments) was 0.19 ± 0.09 s⁻¹ and the Km (PSA [1]; substrate 0.125–2 mM, 175 nM PSA, 0.1% BSA-TBS, 5% DMSO, 355/460 nm, room temperature, 10 min to 4 h, mean ± SD of two experiments) was 1580 ± 40 µM. The kcat/Km (PSA [1]; substrate 0.125–2 mM, 175 nM PSA, 0.1% BSA-TBS, 5% DMSO, room temperature, mean ± SD of two experiments) was 122.0±59.4 s^−1M^−1.

With `CC(C)C[C@@H]1NC(=O)[C@H](Cc2ccc(O)cc2)NC(=O)[C@H](CC(=O)O)NC(=O)[C@H](Cc2ccc(O)cc2)NC(=O)[C@H](CC(N)=O)NC(=O)[C@H](Cc2c[nH]cn2)NC(=O)[C@H](C)NC(=O)[C@H](Cc2ccccc2)NC(=O)[C@H](C(C)C)NC(=O)[C@@H](N)CSSC[C@@H](C(N)=O)NC(=O)[C@H](C(C)C)NC1=O` [B2-NH2] (H-CVFAHNYDYLVC-NH2; disulfide 1-12) the Emax (PSA [2]) was 400 ± 14%, the EC50 (PSA [2]) was 5.13 ± 1.43 µM and the Emax (PSA [3]) was 391 ± 11%. It also gave an EC50 (PSA [3]) of 4.78 ± 1.55 µM.

`CC[C@H](C)[C@@H]1NC(=O)[C@@H]2CSSC[C@H](NC(=O)[C@H](Cc3c[nH]cn3)NC(=O)[C@H](Cc3c[nH]cn3)NC(=O)[C@H](CCC(=O)O)NC1=O)C(=O)N[C@@H](Cc1c[nH]c3ccccc13)C(=O)N[C@@H]([C@@H](C)O)C(=O)N[C@H](C(=O)O)CSSC[C@H](N)C(=O)N[C@@H](C(C)C)C(=O)N[C@@H](C)C(=O)N[C@@H](Cc1ccc(O)cc1)C(=O)N2` [C4] (H-CVAYCIEHHCWTC-OH; disulfide 1-13, 5-10) was tested, and the Emax (PSA [2]) was 785 ± 7%, the EC50 (PSA [2]) was 5.62 ± 2.17 µM and the Emax (PSA [3]) was 610 ± 8%. For the same compound, the EC50 (PSA [3]) was 3.72 ± 0.5 µM.

“CVFAHNADALVC (disulfide 1-12 (inferred)) [B2-NH2-control]” was tested, and the “Stimulation of PSA activity (summary in words)” value (PSA [2]; towards chromogenic and fluorogenic peptide substrates (Figure 1, Table 2), B2 and B2-NH2-control: Figure 1A (chromogenic)) was “did not stimulate PSA activity at all” and the “binding to PSA” value (PSA [4]) was “All peptides, except the inactive B2-NH2-control peptide, bound to PSA”.

“IGFBP-3: recombinant human insulin-like growth factor-binding protein-3” was tested, and the “time for degradation of 50% of the protein” value (PSA [5]) was 22 h.

In the case of “PSA: major form of active PSA (isoform PSA-B) purified from pooled human seminal fluid”, the “decrease of the content of intact IGFBP-3” value (IGFBP-3) is reported as 50%, the tube formation (HUVECs; 1 µM PSA, 20 h, HUVECs on Matrigel) is reported as “reduced tube formation” and the “effect of PSA pre-incubation of gelled Matrigel on tube formation” value (HUVECs; overnight pre-incubation of Matrigel with PSA, then PSA inhibited with antibody, Mattsson et al. unpublished data) is reported as “did not inhibit endothelial cell tube formation”. The cleavage of plasminogen (plasminogen) was “but not PSA, cleaved 1 µM plasminogen”.

fibronectin was tested, and the “time for degradation of 50% of the protein” value (PSA [5]) was 17 h.
